Marks after values point to notes of the source that are not given here.
Assays:
[1] = system: Ma44 human lung squamous cell carcinoma; test: Antitumor efficacy against Ma44 human lung squamous cell carcinoma implanted subcutaneously in nude mice; conditions: for % inhibition: day 27; for RV on day 27 (Mean +/- SD), relative tumor volume: nude mice; for growth inhibition (% inhibition): p<0.01
Description: (§1) Compound (1) was suspended in 1% methylcellulose solution (Wako, Osaka, 400 c.p., and distilled water) and was stored at 4° C. Paclitaxel (Sigma St. Louis, Mo.) was dissolved in dimethylsulfoxide (DMSO, Nakarai-Tesk, Tokyo) and stored at 4° C., and was prepared in a solution of 10% DMSO, 18% Cremophore RH-40 (Nikko Chemicals) and 72% distilled water before use.
(§2) Female mice, 8 weeks old (strain BALB/c-nu/nu, CLEA Japan Inc., Tokyo) were obtained and adapted for 5 days at experimental conditions and used at 10 weeks old. Experimental conditions included temperature of 21-27° C.; relative humidity of 40-70%; ventilation>10 times/hour; fluorescent light for 12-hour light (8:00-20:00)/12-hour dark; ad libitium access to food (irradiated CA-1, CLEA Japan Inc., Tokyo) and water (Osaka city tap water).
(§3) Statistical analyses versus control group and between selected groups were performed using a spreadsheet program to run Welch's test and Dunnett's multiple comparison test.
(§4) Tumor size and body weight were scored at least twice a week throughout the experiment. Tumor size was captured utilizing CD-10C compatible electric calipers (Mitsutoyo Corp., Kawasaki) and animal weight was automatically captured from the balance (A/D, Tokyo). The tumor volume was calculated by the following formula: [Tumor volume=(Length×Width×Width)/2]. The relative tumor volume (RV) was calculated as RV=Vn/Vo, where Vn: tumor volume on day n, and Vo: initial tumor volume. Judgment was performed one day (Examples 6 and 9) or three days (Examples 7 and 8) after the last dosing.
(§5) Animal experiments were performed using Tumor Measuring & Tracking System (VISIONS Co. Ltd., Tokyo). An experiment consisted of 8 mice per group (Examples 6 and 9) or 6 mice per group (Examples 7 and 8). Tumor samples were implanted subcutaneously into the back of mice (day 0). Tumor-implanted animals were randomized to groups based upon tumor volume and body weight when tumor volume reached approximately 100-200 mm^3. The control group was given vehicle (1% methylcellulose solution). The doses were calculated on the basis of up-to-date body weights of the mice (0.1 mL/10 g body weight). The mice were non-fasted during an entire course of the experiment.
(§6) Ma44 human lung squamous cell carcinoma was maintained by in vitro passage with using Eagle's Minimum Essential Medium (Nissui Pharmaceutical Co., Tokyo) supplemented with 10% fetal calf serum (Life Technologies Inc, MD). Ma44 cells (5×10^5/0.1 mL) were implanted and the animals were randomized at 11 days. Compound (1) was orally administered daily for 14 days. Paclitaxel solution (DMSO/Cremophore/distilled water) was prepared as above and administered intravenously 6 times (3 times per week×2).

[2] = Body weight of treated mice (summary statement, Examples 1-4); format: in vivo
Description: as §4

RERF-LC-AI carcinoma = test: Antitumor efficacy against RERF-LC-AI human lung cancer fragment implanted subcutaneously in nude mice; conditions: for % inhibition: day 26
Description: (§7) Compound (1) was suspended in 1% methylcellulose solution (Wako, Osaka, 400 c.p., and distilled water) and was stored at 4° C.
as §2, §3
Tumor size and body weight were scored at least twice a week throughout the experiment. Tumor size was captured utilizing CD-10C compatible electric calipers (Mitsutoyo Corp., Kawasaki) and animal weight was automatically captured from the balance (A/D, Tokyo). The tumor volume was calculated by the following formula: [Tumor volume=(Length×Width×Width)/2]. The relative tumor volume (RV) was calculated as RV=Vn/Vo, where Vn: tumor volume on day n, and Vo: initial tumor volume.
Animal experiments were performed using Tumor Measuring & Tracking System (VISIONS Co. Ltd., Tokyo). […] Tumor samples were implanted subcutaneously into the back of mice (day 0). Tumor-implanted animals were randomized to groups based upon tumor volume and body weight when tumor volume reached approximately 100-200 mm^3. The control group was given vehicle (1% methylcellulose solution). The doses were calculated on the basis of up-to-date body weights of the mice (0.1 mL/10 g body weight). The mice were non-fasted during an entire course of the experiment.
The tumor sample implanted was a fragment of RERF-LC-AI carcinoma. Implanted animals were randomized at 10 days. Compound (1) was orally administered daily for 14 days.

[3] = system: BG-1-TR1 human ovarian cancer; test: Antitumor efficacy against BG-1-TR1 human ovarian cancer implanted subcutaneously in nude mice
Description: as §7, §2, §3, §4, §5
The tumor sample implanted included BG-1-TR1 cells (3×10^6/0.1 ml of 5 mg/ml matrigel solution, BD Biosciences, Bedford, Mass.). Implanted animals were randomized at 20 days. Compound (1) was orally administered daily for 14 days from day 20 to 33.

RERF-LC-AI/TXL carcinoma [4] = test: Antitumor efficacy against RERF-LC-AI/TXL human lung cancer fragment implanted subcutaneously in nude mice; conditions: for % inhibition: day 24
Description: as §1, §2, §3, §4, §5
(§8) The tumor sample implanted was a fragment of RERF-LC-AI/TXL carcinoma. Implanted animals were randomized at 11 days. Compound (1) was orally administered daily for 14 days. Paclitaxel solution (DMSO/Cremophore/distilled water) was prepared as above. and administered intravenously 6 times (3 times per week×2, day 11, 13, 15, 18, 20 and 22).

[5] = system: Ma44 human lung squamous cell carcinoma; conditions: in vivo
Description: as §1, §2, §3, §4, §5, §6

RERF-LC-AI/TXL carcinoma [6] = conditions: in vivo
Description: as §1, §2, §3, §4, §5, §8

[7] = 25 mg/kg x 14, oral daily, day 11-24
[8] = 50 mg/kg x 14, oral daily, 5 surviving mice
[9] = 20 mg/kg, maximum tolerated dose for nude mice in this schedule
[10] = 20 mg/kg x 6, intravenous, day 10, 12, 14, 17, 19 and 21

For `Cc1cc(NC(=O)C(=O)c2cc(Cc3ccc(C#N)cc3)n3ccccc23)sn1` [Compound (1), 2-(3-(4-cyanobenzyl)indolizin-1-yl)-N-(3-methylisothiazol-5-yl)-2-oxoacetamide], the “MBWL, maximum body weight loss (% of initial)” value ([1]; 25 mg/kg x 14, oral daily) was 3%, the “% inhibition” value [1, 7] was 35.2% and the “RV on day 27 (Mean +/- SD), relative tumor volume” value [1, 7] was 10.0 ± 1.4. For the same compound, the body weight losses ([1]; 50 mg/kg daily oral dosing) was “mild”, the “growth inhibition (% inhibition)” value ([1]; 50 mg/kg daily oral dosing) was 63.9% and the “MBWL, maximum body weight loss (% of initial)” value ([1]; 50 mg/kg x 14, oral daily) was 5%. The “% inhibition” value ([1]; 50 mg/kg x 14, oral daily) was 68.8%, the “RV on day 27 (Mean +/- SD), relative tumor volume” value ([1]; 50 mg/kg x 14, oral daily) was 4.8 ± 1.7 and the “growth inhibition (% inhibition)” value ([1]; lower dose, daily oral) was 36.2%. The “percent inhibition of cancer cells” value ([1]; oral administration, Ma44, summary) was no more than 64%, the “change in body weight” value [2] was “Minimal change in body weight” and the “MBWL, maximum body weight loss (% of initial)” value (RERF-LC-AI carcinoma; 25 mg/kg x 14, oral daily) was 4%. The “RV on day 26 (Mean +/- SD), relative tumor volume” value (RERF-LC-AI carcinoma; 25 mg/kg x 14, oral daily, day 10-23, nude mice) was 14.1 ± 73, the “% inhibition” value (RERF-LC-AI carcinoma; 25 mg/kg x 14, oral daily) was 64.9% and the Toxic death (RERF-LC-AI carcinoma; 50 mg/kg x 14, oral daily, 1 of 6 mice, on day 21) was “one of six mice”. The “MBWL, maximum body weight loss (% of initial)” value (RERF-LC-AI carcinoma; [8]) was 14%, the “RV on day 26 (Mean +/- SD), relative tumor volume” value (RERF-LC-AI carcinoma; [8]) was 8.2 ± 1.9 and the “% inhibition” value (RERF-LC-AI carcinoma; 50 mg/kg x 14, oral daily) was 79.7%. The Toxic death (RERF-LC-AI carcinoma; 75 mg/kg x 14, oral daily, 6 mice, on day 17-20) was “All mice”, the “percent inhibition of cancer cells” value (RERF-LC-AI carcinoma; oral administration, RERF-LC-AI, summary) was no more than 80% and the “% inhibition” value ([3]; 12.5 mg/kg x 14, oral daily) was 27.4%. For the same compound, the “MBWL, maximum body weight loss (% of initial)” value ([3]; 12.5 mg/kg x 14, oral daily) was 0%, the “RV (Mean +/- SD), relative tumor volume on day 34” value ([3]; 12.5 mg/kg x 14, oral daily, from day 20 to 33) was 1.6 ± 0.7 and the body weight losses ([3]; 25 mg/kg and 50 mg/kg daily oral dosing groups) was “mild”. The “% inhibition” value ([3]; 25 mg/kg x 14, oral daily) was 27.5%, the “RV (Mean +/- SD), relative tumor volume on day 34” value ([3]; 25 mg/kg x 14, oral daily, from day 20 to 33) was 1.6 ± 0.5 and the “MBWL, maximum body weight loss (% of initial)” value ([3]; 25 mg/kg x 14, oral daily, maximum on d24) was 1.9% (d24). For the same compound, the “RV (Mean +/- SD), relative tumor volume on day 34” value ([3]; 50 mg/kg x 14, oral daily, from day 20 to 33) was 0.9 ± 0.3, the “MBWL, maximum body weight loss (% of initial)” value ([3]; 50 mg/kg x 14, oral daily, maximum on d34) was 8.7% (d34) and the “percent inhibition of cancer cells” value ([3]; oral administration, BG1-TR1, summary) was “up to 61%”. The “MBWL, maximum body weight loss (% of initial)” value (RERF-LC-AI/TXL carcinoma [4]; 25 mg/kg x 14, oral daily) was 1%, the “RV on day 24 (Mean +/- SD), relative tumor volume” value (RERF-LC-AI/TXL carcinoma [4]; 25 mg/kg x 14, oral daily, from day 10 to 23, nude mice) was 26.49 ± 13.41 and the “% inhibition” value (RERF-LC-AI/TXL carcinoma [4]; 25 mg/kg x 14, oral daily) was 36.2%. For the same compound, the “growth inhibition” value (RERF-LC-AI/TXL carcinoma [4]; 50 mg/kg daily oral dosing, evaluation day 27) was 68.8%, the “MBWL, maximum body weight loss (% of initial)” value (RERF-LC-AI/TXL carcinoma [4]; 50 mg/kg x 14, oral daily) was 3% and the Toxic death (RERF-LC-AI/TXL carcinoma [4]; 50 mg/kg x 14, oral daily, 1 mouse, on day 16) was “Toxic”. For the same compound, the “RV on day 24 (Mean +/- SD), relative tumor volume” value (RERF-LC-AI/TXL carcinoma [4]; 50 mg/kg x 14, oral daily, 7 surviving mice) was 15.01 ± 6.45, the “% inhibition” value (RERF-LC-AI/TXL carcinoma [4]; 50 mg/kg x 14, oral daily) was 63.9% and the “percent inhibition of cancer cells” value (RERF-LC-AI/TXL carcinoma [4]; oral administration, RERF/TXL, summary) was no more than 67%. For the same compound, the mice found dead [5] was “one of eight mice” and the mice found dead (RERF-LC-AI/TXL carcinoma [6]) was “All mice”.

With `CC(=O)O[C@H]1C(=O)[C@@]2(C)[C@H]([C@H](OC(=O)c3ccccc3)[C@]3(O)C[C@H](OC(=O)[C@H](O)[C@@H](NC(=O)c4ccccc4)c4ccccc4)C(C)=C1C3(C)C)[C@]1(OC(C)=O)CO[C@@H]1C[C@@H]2O` [Paclitaxel, reference compound] the “MBWL, maximum body weight loss (% of initial)” value ([1]; 20 mg/kg x 6, intravenous) was 3%, the “RV on day 27 (Mean +/- SD), relative tumor volume” value ([1]; 20 mg/kg x 6, intravenous, day 11, 13, 15, 18, 20 and 22) was 2.8 ± 0.4^**e) and the “% inhibition” value ([1]; 20 mg/kg x 6, intravenous) was 81.8%. The antitumor activity [1, 9] was “neither significant nor effective”, the “MBWL, maximum body weight loss (% of initial)” value (RERF-LC-AI carcinoma; 20 mg/kg x 6, intravenous) was 7% and the “RV on day 26 (Mean +/- SD), relative tumor volume” value (RERF-LC-AI carcinoma; [10]) was 3.1 ± 0.8**^e). For the same compound, the “% inhibition” value (RERF-LC-AI carcinoma; 20 mg/kg x 6, intravenous) was 92.2%, the “% inhibition” value ([3]; 20 mg/kg x 6, intravenous) was 8.3% and the “RV (Mean +/- SD), relative tumor volume on day 34” value ([3]; 20 mg/kg x 6, intravenous, day 20, 22, 24, 27, 29, 31, nude mice) was 2.0 ± 0.7. The “MBWL, maximum body weight loss (% of initial)” value ([3]; 20 mg/kg x 6, intravenous, maximum on d27) was 4.5% (d27), the antitumor activity ([3]; 20 mg/kg, maximum tolerated dose for nude mice in this schedule, BG-1 cells) was “neither significant nor effective” and the “MBWL, maximum body weight loss (% of initial)” value (RERF-LC-AI/TXL carcinoma [4]; 10 mg/kg x 6, intravenous) was 0%. For the same compound, the “RV on day 24 (Mean +/- SD), relative tumor volume” value (RERF-LC-AI/TXL carcinoma [4]; 10 mg/kg x 6, intravenous, day 10, 12, 14, 17, 19 and 21) was 31.23 ± 6.69, the “% inhibition” value (RERF-LC-AI/TXL carcinoma [4]; 10 mg/kg x 6, intravenous) was 24.8% and the “MBWL, maximum body weight loss (% of initial)” value (RERF-LC-AI/TXL carcinoma [4]; 20 mg/kg x 6, intravenous) was 0%. The “RV on day 24 (Mean +/- SD), relative tumor volume” value (RERF-LC-AI/TXL carcinoma [4]; [10]) was 32.87 ± 10.03, the “% inhibition” value (RERF-LC-AI/TXL carcinoma [4]; 20 mg/kg x 6, intravenous) was 20.9% and the “growth inhibition” value (RERF-LC-AI/TXL carcinoma [4]; [9]) was 81.8%.

Reference: US20050272766A1, “1-Glyoxylamide indolizines for treating lung and ovarian cancer” (Synta Pharmaceuticals Corp., priority 2004, published 2005)
